The results in this text go back to patent US20100215777A1, “Malononitrile Compounds” (BASF SE, priority 2006, published 2010).

In turn, `N#CC(C#N)(CCCSC(F)(F)F)CC(F)(F)C(F)(F)C(F)(F)C(F)(F)C(F)(F)F` gave a melting point of 88 to 90 °C.

The melting point is the temperature of the solid-liquid transition.
